Results from PMC7707621, “Oxidized Juncuenin B Analogues with Increased Antiproliferative Activity on Human Adherent Cell Lines: Semisynthesis and Biological Evaluation” (Journal of Natural Products, 2020).
“Also recorded” adds a separate entry of the source.

Experiments:
SiHa cells = assay: MTT antiproliferative assay on SiHa; format: cell-based, human; settings: Homo sapiens, SiHa; for inhibition at 10 µM / inhibition at 30 µM: read-out: Growth inhibition (% ± SEM), SiHa; for IC50: MTT, 0.1–30 μM, 72 h, mean ± SEM, read-out: calculated IC50 values, SiHa
Description: (§1) The antiproliferative assays of the products were carried out by a standard MTT method on human breast (MCF-7, T47D), cervical (HeLa, SiHa, C33A), and ovarian (A2780) cancer cells, and NIH/3T3 mouse embryonic fibroblast cell lines. In the first step, the diastereomeric and racemic mixtures 1–11 and the starting compound, juncuenin B, were tested to obtain information about their antiproliferative activity.
(§2) The antiproliferative activity and tumor selectivity of the compounds were measured by standard MTT assays. Tumor cell lines MCF-7, T47D, HeLa, A2780, and noncancerous NIH/3T3 were provided by European Collection of Authenticated Cell Cultures (ECACC, Salisbury, UK); cell lines SiHa and C33A by LGC Standards GmbH (Wesel, Germany). All chemicals and materials used for the antiproliferative assays were purchased from Sigma Aldrich Ltd. (Budapest, Hungary).
(§3) Growth-inhibition properties of racemates and pure enantiomer compounds were determined by standard MTT assays on six human malignant gynecological cell lines (MCF-7, T47D, HeLa, SiHa, C33A, A2780). To investigate tumor selectivity, the MTT assay was repeated on mouse embryonic fibroblast cells (NIH/3T3) under the same conditions. All cell lines were maintained in minimal essential medium (MEM) supplemented with 10% fetal bovine serum, 1% nonessential amino acids, and 1% penicillin–streptomycin–amphotericin B mixture, and were stored in humidified air containing 5% CO2 at 37 °C. All cell types were seeded into 96–well plates at a density of 5000 with the exception of C33a, which was seeded at a density of 10 000 and treated by increasing concentrations (0.1–30 μM) of the compounds for 72 h under cell culturing conditions. After the incubation, 5 mg/mL MTT [3-(4,5-dimethylthiazol-2-yl)-2,5-diphenyltetrazolium bromide] solution was added to samples for 4 h and precipitated blue formazan crystals were dissolved in DMSO. Absorbance values of the samples were measured at 545 nm using a microplate reader (Stat Fax-2100, Awareness Technologies Inc., Palm City, FL, USA) and untreated cells were used as control. Normalized sigmoidal dose–response curves were fitted to the determined data and the IC50 values were calculated by GraphPad Prism 5.01 (GraphPad Software, San Diego, CA, USA). Cisplatin (Ebewe Pharma GmbH, Unterach, Austria) was used as a reference agent in the same concentration range.

C33A cells = assay: MTT antiproliferative assay on C33A; format: cell-based, human; settings: Homo sapiens, C-33-A; for inhibition at 10 µM / inhibition at 30 µM: read-out: Growth inhibition (% ± SEM), C33a; for IC50: MTT, 0.1–30 μM, 72 h, mean ± SEM, read-out: calculated IC50 values, C33A
Description: as §1, §2, §3

A2780 cells = assay: MTT antiproliferative assay on A2780; format: cell-based, human; settings: Homo sapiens; for inhibition at 10 µM: A2780, 10 μM; for inhibition at 10 µM / inhibition at 30 µM: read-out: Growth inhibition (% ± SEM), A2780; for inhibition at 30 µM: A2780, 30 μM; for IC50: A2780, MTT, 0.1–30 μM, 72 h, mean ± SEM, read-out: calculated IC50 values, A2780
Description: as §1, §2, §3

T47D cells = assay: MTT antiproliferative assay on T47D; format: cell-based, human; settings: Homo sapiens, T47D; for inhibition at 10 µM / inhibition at 30 µM: read-out: Growth inhibition (% ± SEM), T47d; for IC50: MTT, 0.1–30 μM, 72 h, mean ± SEM, read-out: calculated IC50 values, T47D
Description: as §1, §2, §3

HeLa cells = assay: MTT antiproliferative assay on HeLa; format: cell-based, human; settings: Homo sapiens, HeLa; for inhibition at 10 µM / inhibition at 30 µM: read-out: Growth inhibition (% ± SEM), HeLa; for IC50: MTT, 0.1–30 μM, 72 h, mean ± SEM, read-out: calculated IC50 values, HeLa
Description: as §1, §2, §3

[1] = test system: NIH/3T3 mouse embryonic fibroblast cells; assay: MTT assay for tumor selectivity on NIH/3T3; format: cell-based; settings: Mus musculus, NIH3T3; for IC50: MTT, 0.1–30 μM, 72 h, mean ± SEM, read-out: calculated IC50 values, NIH/3T3
Description: as §1, §2, §3

[2] = test system: MCF-7, T47D, HeLa, SiHa, C33A, A2780 cells; assay: MTT antiproliferative assay, panel of human gynecological cancer cell lines (result in words); format: cell-based
Description: as §1, §2, §3

MCF-7 cells = assay: MTT antiproliferative assay on MCF-7; format: cell-based, human; settings: Homo sapiens; for inhibition at 10 µM: MCF7, 10 μM; for inhibition at 10 µM / inhibition at 30 µM: read-out: Growth inhibition (% ± SEM), MCF-7; for inhibition at 30 µM: MCF7, 30 μM; for IC50: MCF7, MTT, 0.1–30 μM, 72 h, mean ± SEM, read-out: calculated IC50 values, MCF-7
Description: as §1, §2, §3

Row | Structure (SMILES) | inhibition at 10 µM (SiHa cells) [%] | inhibition at 30 µM (SiHa cells) [%] | IC50 (SiHa cells) [µM] | inhibition at 10 µM (C33A cells) [%] | inhibition at 30 µM (C33A cells) [%] | IC50 (C33A cells) [µM] | inhibition at 10 µM (A2780 cells) [%] | inhibition at 30 µM (A2780 cells) [%] | IC50 (A2780 cells) [µM] | inhibition at 10 µM (T47D cells) [%] | inhibition at 30 µM (T47D cells) [%] | IC50 (T47D cells) [µM] | inhibition at 10 µM (HeLa cells) [%] | inhibition at 30 µM (HeLa cells) [%] | IC50 (HeLa cells) [µM] | IC50 [1] [µM] | antiproliferative activity (in words) [2] | inhibition at 10 µM (MCF-7 cells) [%] | inhibition at 30 µM (MCF-7 cells) [%] | IC50 (MCF-7 cells) [µM] | also measured
1 | C=CC1=C(C)C(=O)C=C2c3ccc(O)c(C)c3CCC21OCCCC (stereo not drawn) [Compound 11] | < 10 | < 10 | > 30 | 20.1 ± 2.24 | 65.5 ± 1.26 | 19.9 ± 1.3 | 28.3 ± 2.31 | 77.82 ± 0.69 | 16.5 ± 2 | 11.6 ± 1.4 | 52.9 ± 0.59 | 30 ± 0.5 | < 10 | 42.6 ± 1.18 | > 30 | > 30 | No significant activities | 27.7 ± 1.3 | 82.46 ± 0.33 | 18.2 ± 0.2 | –
2 | C=CC1=C(C)C(=O)C=C2C3(OCC)C=CC(=O)C(C)=C3CCC21OCC (stereo not drawn) [Compound 5] | < 10 | < 10 | – | < 10 | 10.3 ± 1.51 | – | < 10 | < 10 | – | < 10 | 14.1 ± 2.78 | – | < 10 | 14.4 ± 1.51 | – | – | did not exert antiproliferative activity; also recorded: No significant activities | < 10 | < 10 | – | –
3 | C=Cc1c(C)c(O)cc2c3c(ccc12)C(C)(OCC)C(=O)C=C3 (stereo not drawn) [Compound 8] | < 10 | 16.7 ± 2.83 | – | < 10 | 21.3 ± 1.52 | – | < 10 | < 10 | – | < 10 | 14.1 ± 2.02 | – | < 10 | 22.2 ± 1.15 | – | – | did not exert antiproliferative activity; also recorded: No significant activities | 13 ± 0.63 | 23.9 ± 2.11 | – | –
4 | C=CC1=C(C)C(=O)C=C2C3(OC)C=CC(=O)C(C)=C3CCC21OC (stereo not drawn) [Compound 2a] | 15.4 ± 1.68 | 16.9 ± 2.31 | – | < 10 | 31.9 ± 3.75 | – | < 10 | 54.6 ± 3.67 | – | < 10 | 19.8 ± 0.61 | – | 32.3 ± 4.15 | 30 ± 0.74 | – | – | did not exert antiproliferative activity; also recorded: No significant activities | 40.3 ± 0.95 | 30.5 ± 1.82 | – | –
5 | C=CC1=C(C)C(=O)C=C2c3ccc(O)c(C)c3CC[C@]21OC [Compound 4b] | < 10 | < 10 | > 30 | < 10 | 35.4 ± 0.8 | > 30 | < 10 | 13.7 ± 2.81 | > 30 | 16.5 ± 1.68 | 28.1 ± 1.79 | > 30 | 19 ± 2.11 | 37.2 ± 0.72 | > 30 | > 30 | no relevant influence on the cell proliferation | 24.4 ± 1.43 | 42 ± 1.94 | > 30 | inhibition at 10 µM ([1]; 10 μM, read-out: Growth inhibition (% ± SEM), NIH): < 10%; inhibition at 30 µM ([1]; 30 μM, read-out: Growth inhibition (% ± SEM), NIH): < 10%
